From patent US7538241B2, “Hsp90 family protein inhibitors” (Kyowa Hakko Kogyo Co., Ltd., priority 2003, dated 2009)

Experiments:
[1] = test system: human mammary cancer-derived KPL-4 cells; assay: Cell growth inhibition test with KPL-4 cells (WST-1); format: cell-based; details: KPL4, 72 hours, read-out: 50% growth inhibition concentration (GI50)
Method in brief: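 KPL-4 cells pre-incubated 24 h in 10% FCS DMEM, then exposed to serially diluted compound for 72 h at 37 °C, 5% CO2. WST-1 added for 1 h; A450 minus A655 read. GI50 relative to untreated cells.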

[2] = test system: human chronic myelocytic leukemia-derived K562 cells; assay: Cell growth inhibition test with K562 cells (WST-1); format: cell-based; details: 72 hours, read-out: 50% growth inhibition concentration (GI50)
Method in brief: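 K562 cells at 1500 cells/well in 10% FCS RPMI 1640, pre-incubated 5 h, then exposed to serially diluted compound for 72 h at 37° C, 5% CO2. Viability read by WST-1 after 2 h (absorbance 450/655 nm); GI50 reported.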

[3] = test system: human multiple myeloma-derived KMS-11 cells; assay: Cell growth inhibition test with KMS-11 cells (WST-1); format: cell-based; details: 72 hours, read-out: 50% growth inhibition concentration (GI50)
Procedure: In a 96-well plate (Nunc), human multiple myeloma-derived KMS-11 cells were sown in an amount of 4000 cells/well, and pre-incubated in 10% FCS-containing RPMI 1640 (Nissui) (incubation medium) in a 5% carbon dioxide incubator at 37° C. for 24 hours. Next, a DMSO solution of a test compound controlled at 10 mmol/L was stepwise diluted with the incubation medium, and added to each well in a total amount of 100 μL/well, and further incubated in the 5% carbon dioxide incubator at 37° C. for 72 hours. After the incubation, WST-1-labeled mixture (Rosh Diagnostic) diluted 2-fold with the incubation medium was added thereto in an amount of 20 μL/well, and incubated in the 5% carbon dioxide incubator at 37° C. for 2 hours. Using a microplate spectrophotometer (Biorad's Model 550), the absorbance at 450 nm and 655 nm of each well was measured. The cell growth inhibition activity of the test compound was indicated by the 50% growth inhibition concentration (GI50) thereof, like in Test Example 2.

[4] = test system: FGFR3 (fibroblast growth factor receptor 3); assay: Deletion of protein encoded by immunoglobulin gene-translocated partner gene in KMS-11 cells (Western blotting); format: cell-based, human; details: 10 μmol/L and 1.0 μmol/L, 24 hours, FIG. 1
Procedure: (§1) Human multiple myeloma-derived KMS-11 cells [In Vitro Cell. Dev. Biol., 25, 723 (1989)], which had been diluted with a 10% fetal calf serum-containing RPMI 1640 (incubation medium) to 100,000 cellImL, were put in a 6-well plastic plate for cell incubation (Nunc), in an amount of 3 mL/well. It is reported that the KMS-11 cells express a large quantity of FGFR3 (fibroblast growth factor receptor 3) as a result of translocation between the immunoglobulin gene in 14q32 and the FGFR3 gene in 4p16.3 [Blood 90, 4062 (1997)]. […]
(§2) To the thus-collected cells, added was a cooled cytolysis buffer (50 mmol/L HEPES NaOH, pH 7.4, 250 mmol/L sodium chloride, 1 mmol/L ethylenediamine-tetraacetic acid, 1% Nonidet P-40, 1 mmol/L dithiothreitol, 1 mmol/L phenylmethylsulfonyl fluoride, 5 μg/mL leupeptin), and kept at 4° C. for 30 minutes for cytolysis. […] The protein concentration in the resulting supernatant was measured, and samples were prepared so as to have the same protein amount for each lane, and these were subjected to SDS (sodium dodecylsulfate)-polyacrylamide gel electrophoresis for protein separation.
(§3) Thus separated, the protein sample was transferred onto a polyvinylidene difluoride membrane (Millipore). […] After further reaction with an ECL reagent (Amersham Biosciences), the protein bands were detected on an X-ray film. […]

[5] = test system: Erk2; assay: Western blotting of non-Hsp90 client protein in KMS-11 cells; format: cell-based, human; details: 10 μmol/L and 1.0 μmol/L, 24 hours, FIG. 1
Procedure: as §1, §2, §3

`CCc1c(O)cc(O)c(-c2cccc(O)c2)c1CCOCCOC` [Compound 166, 6-Ethyl-4-(3-hydroxyphenyl)-5-[2-(2-methoxyethoxy)ethyl]benzene-1,3-diol] was tested, and the GI50 [1] was at most 50 µM, the GI50 [2] was at most 50 µM and the GI50 [3] was at most 50 µM.
In the case of `CCc1c(O)cc(O)c(-c2cccc(O)c2)c1CCOCCO` [Compound 174, 6-Ethyl-5-[2-(2-hydroxyethoxy)ethyl]-4-(3-hydroxyphenyl)benzene-1,3-diol], the GI50 [1] is reported as at most 50 µM, the GI50 [2] is reported as at most 50 µM and the GI50 [3] is reported as at most 50 µM.
With `CCc1c(O)cc(O)c(-c2ccccc2)c1CCc1ocnc1C(=O)O` [Compound 209, 5-[2-(2-Ethyl-3,5-dihydroxy-6-phenylphenyl)ethyl]-1,3-oxazole-4-carboxylic acid] the GI50 [2] was at most 50 µM, the GI50 [3] was at most 50 µM and the “deletion of FGFR3 encoded by the immunoglobulin gene-translocated partner gene” value [4] was “deletion of FGFR3”. The “protein amount of Erk2 (non-Hsp90 client protein)” value [5] was “no change”.
In the case of `CCc1c(O)cc(O)c(-c2ccccc2)c1CC1O[C@H](CO)[C@@H](CO)O1` [Compound 218, 5-{[(4R,5R)-4,5-bis(hydroxymethyl)-1,3-dioxolan-2-yl]methyl}-6-ethyl-4-phenylbenzene-1,3-diol], the GI50 [2] is reported as at most 50 µM, the GI50 [3] is reported as at most 50 µM and the “deletion of FGFR3 encoded by the immunoglobulin gene-translocated partner gene” value [4] is reported as “deletion of FGFR3”. The “protein amount of Erk2 (non-Hsp90 client protein)” value [5] was “no change”.
With `COC(=O)Cc1c(Br)c(O)cc(O)c1-c1ccco1` [Compound 238, Methyl 2-bromo-6-(furan-2-yl)-3,5-dihydroxyphenylacetate] the GI50 [1] was at most 50 µM, the GI50 [2] was at most 50 µM and the GI50 [3] was at most 50 µM.
`COC(=O)Cc1c(Br)c(O)cc(O)c1-c1ccc(CCC(C)=O)o1` [Compound 265, Methyl 2-bromo-3,5-dihydroxy-6-[5-(3-oxobutyl)furan-2-yl]phenylacetate] gave a GI50 [1] of at most 50 µM, a GI50 [2] of at most 50 µM and a GI50 [3] of at most 50 µM.
